Columns and labels:
Plasmodium falciparum [1] = assay: NOVARTIS: Inhibition of Plasmodium falciparum 3D7 (drug-susceptible) proliferation in erythrocyte-based infection assay; assay type: functional, organism-based; details: Plasmodium falciparum, 3D7
Plasmodium falciparum [2] = assay: NOVARTIS: Inhibition of Plasmodium falciparum W2 (drug-resistant) proliferation in erythrocyte-based infection assay; assay type: functional, organism-based; details: Plasmodium falciparum, W2; read-out: EC50
[3] = NOVARTIS: Cytotoxicity against human hepatocellular carcinoma cell line (Huh7); assay type: toxicity, cell-based, Huh-7; details: Huh7 cells (hepatocellular carcinoma cell line)

Structure (SMILES)	EC50 (Plasmodium falciparum [1]) [µM]	EC50 (Plasmodium falciparum [2]) [µM]	CC50 [3] [µM]
Cc1ccc(N2C(=O)c3sc4nnc(C)c(=O)n4c3C2=O)cc1	> 0.595	0.315	> 10
CCOC(=O)c1c(C)[n+](-c2ccc(C)cc2)c(CC)c2cc(OC)c(OC)cc12	0.702	0.683	> 94
O=C(COc1cccc(Br)c1)NN=Cc1ccccc1F	> 1.25	> 1.19	> 10
C=CC(C)(CCC=C(C)C)c1ccc2c3c(c[nH]c13)CC(CO)NC(=O)C(C(C)C)N2C (centres undefined)	0.552	0.197	> 10
O=C(NCc1ccco1)c1cccc(Cl)c1Cl	> 1.25	1.34	> 10
CN(C)CCNc1ccc2ncc(-c3ccsc3)n2n1	> 1.25	> 0.846	> 10
COC(=O)N(C)C(C)(C)C(C)=NOC(=O)c1ccccc1	> 1.62	> 1.18	> 10
Nc1nc(N)nc(C(c2ccccc2)c2ccccc2)n1	1.09	> 1.25	> 13.2
CC[n+]1c(C)cc2c([nH]c3ccccc32)c1C	1.24	3	> 100
COc1ccc2c(c1)c1c3n2CCN(Cc2ccccc2)C3=[N+](C)CC1	0.442	1.34	> 10
COc1ccc(-c2nc(CN3CCCCC3)ccc2O)cc1	0.131	0.03	> 10
C=CCC1(Nc2ccccc2)CCCCC1	> 1.25	> 1.05	> 10
COc1ccc([C@@H]2Nc3ccc(C(C)=O)cc3[C@@H]3C=CC[C@@H]32)cc1[N+](=O)[O-]	> 1.25	1.76	> 10
COc1cc(C(=O)N2C(C(=O)Nc3ccccc3F)CSC2c2ccc(C(C)(C)C)cc2)cc(OC)c1OC (centres undefined)	1.04	1.28	> 2.31
CC(NC(=O)c1cnn2c(C(F)(F)F)cc(-c3ccc(Br)cc3)nc12)c1ccccc1 (centres undefined)	> 10.8	1.52	> 100
CCc1nc2nc(C)cc(NCCc3cccc(C)c3)n2n1	0.334	0.453	> 100
CCOC(=O)c1sc(NC(=O)C(C)Sc2nnc(CNC(=O)c3cccc(F)c3)n2-c2cccc(C)c2)c(C(=O)OCC)c1C (centres undefined)	> 12.5	1.1	> 100

Structure (SMILES)	EC50 (Plasmodium falciparum [1]) [µM]	EC50 (Plasmodium falciparum [2]) [µM]	CC50 [3] [µM]
Cc1ccc(O)c(NC(=O)c2cnn3c(C(F)(F)F)cc(-c4ccccc4)nc23)c1	1.82	0.472	> 100
Cc1cccc(OCC(O)CN2CCN(CC(=O)c3ccc(Br)cc3)CC2)c1 (centres undefined)	> 1.25	0.896	0.214
Cc1ccc(NC2=C(c3ccc(C(F)(F)F)cc3)C(=O)c3ccccc32)cc1C	1.24	1.69	> 100
CC(C)(CCl)C(=O)NCCCCNc1ccnc2cc(Cl)ccc12	0.386	0.361	> 11.3
COc1cc(C(=O)NCCc2cc3ccccc3[nH]2)ccc1OC1CCN(CC(c2ccccc2)c2ccccc2)CC1	0.803	0.0944	> 10.9
CC(/C=C/C(=O)NO)=C\[C@@H](C)C(=O)c1ccc(N(C)C)cc1 [TRICHOSTATIN]	0.2	0.171	1.59
COc1ccc(C2CC(c3cccs3)=NN2C(=O)CSc2nnc(CNC(=O)c3cccs3)n2-c2cc(C)ccc2C)cc1 (centres undefined)	> 8.55	1.14	> 100
O=C(NCC1CCCO1)c1cnc(N2CCN(c3ncccn3)CC2)c2ccccc12 (centres undefined)	> 0.637	> 1.4	> 10
Cc1ccc(NC(=O)CSc2nc3cc(C(=O)NCCCOC(C)C)ccc3c(=O)n2Cc2ccco2)cc1Cl	1.94	0.34	> 10
CCOC(=O)C1=C(C)NC2=C(C(=O)C(C(=O)OCC)C(c3ccc(OC)cc3)C2)C1c1ccc([N+](=O)[O-])cc1 (centres undefined)	0.685	0.134	> 100
CC[C@H](C)C[C@H]1CC[C@](O)([C@](C)(O)C(=O)N[C@@H]2C(=O)N3NCCC[C@@H]3C(=O)N(O)[C@@H](C)C(=O)NCC(=O)N3NCCC[C@H]3C(=O)N(O)[C@H](C)C(=O)O[C@H]2C(C)C)O[C@@H]1C	0.438	0.567	0.465
CCN(CC)CCCC(C)Nc1c2ccc(Cl)cc2nc2ccc(OC)cc12 (centres undefined) [QUINACRINE]	0.00813	0.0142	19.6
COC(C)(C)CNCc1cc2cc3c(cc2n(Cc2cccc(C(F)(F)F)c2)c1=O)CCC3	> 1.25	> 0.198	> 10
CCN(CC)CCN1C(=O)c2ccc3c4c(ccc(c24)C1=O)C(=O)N(CCN(CC)CC)C3=O	0.243	0.136	0.221
Cc1cc(Nc2ccc(Cl)c(Cl)c2)n2nc(C)nc2n1	0.123	0.112	> 100
CCCCCCC(=O)Oc1ccccc1-c1nc2cc(C)ccn2c1NC(C)(C)CC(C)(C)C	0.636	0.0803	> 10

From ChEMBL document CHEMBL1156829 (Proc Natl Acad Sci U S A, 2008)
